# Measurements as given in patent US8198456B2, “Dihydropyridine derivatives as useful as protein kinase inhibitors” (Bayer Intellectual Property GmbH, priority 2006, dated 2012).
# Molecular target: T1, recombinant human c-MET kinase enzyme domain (Homo sapiens, UniProt P08581)
# T1 construct: Recombinant c-Met kinase domain (amino acids 960-1390); His (N); made in house; host or cells: baculovirus expression system (insect cells; SF21 is named only for the alternative format)
# Experiment: c-MET receptor tyrosine kinase Homogeneous Time Resolved Fluorescence assay (HTRF)
# Type: biochemical
# Details: Biological Example 1 and/or Biological Example 2
# Summary of the method: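 His-tagged c-Met kinase domain (aa 960-1390, baculovirus) phosphorylated biotinylated poly-Glu-Tyr (37 nM) with 20 μM ATP in HEPES pH 7.4, Mg/Mn, DTT, 1% DMSO, 20 min at ambient temperature, EDTA-stopped. HTRF read (PT66-Eu/streptavidin-XL665, 665/620 nm ratio) after 4 h; IC50 from eight 1:3.16 dilutions.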
# T1 sequence (P08581 960-1390): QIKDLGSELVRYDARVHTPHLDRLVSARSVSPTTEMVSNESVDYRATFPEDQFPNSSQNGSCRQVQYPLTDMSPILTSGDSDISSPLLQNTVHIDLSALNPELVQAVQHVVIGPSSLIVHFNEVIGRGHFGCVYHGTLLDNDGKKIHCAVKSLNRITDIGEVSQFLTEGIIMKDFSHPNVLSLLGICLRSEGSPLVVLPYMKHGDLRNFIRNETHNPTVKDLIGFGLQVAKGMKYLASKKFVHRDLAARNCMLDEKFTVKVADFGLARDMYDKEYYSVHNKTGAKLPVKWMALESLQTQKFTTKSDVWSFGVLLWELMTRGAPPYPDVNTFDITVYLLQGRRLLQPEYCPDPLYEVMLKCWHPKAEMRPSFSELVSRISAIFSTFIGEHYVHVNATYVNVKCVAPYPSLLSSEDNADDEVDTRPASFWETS
row,IC50,Structure (SMILES)
1,< 100 nM,"CC1=C(C#N)C(c2ccc3[nH]ncc3c2)C(C#N)=C(CCN)N1 (stereo not shown) [compound 255, 2-(2-aminoethyl)-1,4-dihydro-4-(1H-indazol-5-yl)-6-methyl-3,5-pyridinedicarbonitrile]"
2,< 100 nM,"COC(=O)c1ccc(C2=C(C#N)C(c3ccc4[nH]ncc4c3)C(C#N)=C(C)N2)cc1 (stereo not shown) [compound 257, 4-[3,5-dicyano-1,4-dihydro-4-(1H-indazol-5-yl)-6-methyl-2-pyridinyl]-benzoic acid methyl ester]"
3,< 100 nM,"CC1=C(C#N)C(c2ccc3[nH]ncc3c2)C(C#N)=C(c2ccc(CO)cc2)N1 (stereo not shown) [compound 258, 1,4-dihydro-2-[4-(hydroxymethyl)phenyl]-4-(1H-indazol-5-yl)-6-methyl-3,5-pyridinedicarbonitrile]"
4,< 100 nM,"CC1=C(C#N)C(c2ccc3[nH]nc(N)c3c2)C(C#N)=C(c2ccccc2)N1 (stereo not shown) [compound 259, 4-(3-amino-1H-indazol-5-yl)-1,4-dihydro-2-methyl-6-phenyl-3,5-pyridinedicarbonitrile]"
5,< 100 nM,"CC1=C(C#N)C(c2ccc3[nH]ncc3c2)C(C#N)=C(c2ccc(C(=O)NCCN3CCOCC3)cc2)N1 (stereo not shown) [compound 261, 4-[3,5-dicyano-1,4-dihydro-4-(1H-indazol-5-yl)-6-methyl-2-pyridinyl]-N-[2-(4-morpholinyl)ethyl]-benzamide]"
6,< 100 nM,"CC1=C(C#N)C(c2ccc3[nH]nc(N)c3c2)C(C#N)=C(c2ccc(Cl)cc2)N1 (stereo not shown) [compound 264, 4-(3-amino-1H-indazol-5-yl)-2-(4-chlorophenyl)-1,4-dihydro-6-methyl-3,5-pyridinedicarbonitrile]"
7,< 100 nM,"CC1=C(C#N)C(c2ccc3[nH]ncc3c2)C(C#N)=C(c2ccncc2)N1 (stereo not shown) [compound 265, 1,4-dihydro-4-(1H-indazol-5-yl)-6-methyl-[2,4′-bipyridine]-3,5-dicarbonitrile]"
8,< 100 nM,"CC1=C(C#N)C(c2ccc3[nH]ncc3c2)C(C#N)=C(c2cccnc2)N1 (stereo not shown) [compound 266, 1,4-dihydro-4-(1H-indazol-5-yl)-6-methyl-[2,3′-bipyridine]-3,5-dicarbonitrile]"
9,< 100 nM,"CC1=C(C#N)C(c2ccc3[nH]ncc3c2)C(C#N)=C(c2ccco2)N1 (stereo not shown) [compound 267, 2-(2-furanyl)-1,4-dihydro-4-(1H-indazol-5-yl)-6-methyl-3,5-pyridinedicarbonitrile]"
10,< 100 nM,"CCOC(=O)C1=C(C#N)C(c2ccc3[nH]ncc3c2)C(C#N)=C(C)N1 (stereo not shown) [compound 268, 3,5-dicyano-1,4-dihydro-4-(1H-indazol-5-yl)-6-methyl-2-pyridinecarboxylic acid ethyl ester]"
11,< 100 nM,"CCC1=C(C#N)C(c2ccc3[nH]ncc3c2)C(C#N)=C(CC)N1 [compound 269, 2,6-diethyl-1,4-dihydro-4-(1H-indazol-5-yl)-3,5-pyridinedicarbonitrile]"
12,< 100 nM,"CC1=C(C#N)C(c2ccc3[nH]ncc3c2)C(C#N)=C(c2ccc(N3CCOCC3)nc2)N1 (stereo not shown) [compound 271, 1,4-dihydro-4-(1H-indazol-5-yl)-6-methyl-6′-(4-morpholinyl)-[2,3′-bipyridine]-3,5-dicarbonitrile]"
13,< 100 nM,"CC1=C(C#N)C(c2ccc3[nH]ncc3c2)C(C#N)=C(c2ccc(N3CCOCC3)c(F)c2)N1 (stereo not shown) [compound 272, 2-[3-fluoro-4-(4-morpholinyl)phenyl]-1,4-dihydro-4-(1H-indazol-5-yl)-6-methyl-3,5-pyridinedicarbonitrile]"
14,< 100 nM,"CC1=C(C#N)C(c2ccc3[nH]ncc3c2)C(C#N)=C(c2ccc(N(C)CCO)nc2)N1 (stereo not shown) [compound 273, 1,4-dihydro-6′-[(2-hydroxyethyl)methylamino]-4-(1H-indazol-5-yl)-6-methyl-[2,3′-bipyridine]-3,5-dicarbonitrile]"
15,< 100 nM,"CC1=C(C#N)C(c2ccc3[nH]ncc3c2)C(C#N)=C(c2ccc(NCCN3CCOCC3)nc2)N1 (stereo not shown) [compound 274, 1,4-dihydro-4-(1H-indazol-5-yl)-6-methyl-6′-[[2-(4-morpholinyl)ethyl]amino]-[2,3′-bipyridine]-3,5-dicarbonitrile]"
16,< 100 nM,CC1=C(C#N)C(c2ccc3[nH]ncc3c2)C(C#N)=C(c2ccc(NCCN(C)C)nc2)N1 (stereo not shown) [compound 275]
17,< 100 nM,"CC1=C(C#N)C(c2ccc3[nH]ncc3c2)C(C#N)=C(c2ccnc(Cl)c2)N1 (stereo not shown) [compound 276, 2′-chloro-1,4-dihydro-4-(1H-indazol-5-yl)-6-methyl-[2,4′-bipyridine]-3,5-dicarbonitrile]"
18,< 100 nM,"CC1=C(C#N)C(c2ccc3[nH]ncc3c2)C(C#N)=C(c2ccnc(NCCN3CCOCC3)c2)N1 (stereo not shown) [compound 278, 1,4-dihydro-4-(1H-indazol-5-yl)-6-methyl-2′-[[2-(4-morpholinyl)ethyl]amino]-[2,4′-bipyridine]-3,5-dicarbonitrile]"
19,< 100 nM,"CC1=C(C#N)C(c2ccc3[nH]nc(N)c3c2)C(C#N)=C(c2cc(C)oc2C)N1 (stereo not shown) [compound 281, 4-(3-amino-1H-indazol-5-yl)-2-(2,5-dimethyl-3-furanyl)-1,4-dihydro-6-methyl-3,5-pyridinedicarbonitrile]"
20,< 100 nM,"CC1=C(C#N)C(c2ccc3[nH]nc(N)c3c2)C(C#N)=C(c2ccoc2C)N1 (stereo not shown) [compound 282, 4-(3-amino-1H-indazol-5-yl)-1,4-dihydro-2-methyl-6-(2-methyl-3-furanyl)-3,5-pyridinedicarbonitrile]"
21,500 to 2500 nM,"COC(=O)c1cccc(C2C(C#N)=C(C)N(C)C(C)=C2C#N)c1 [compound 284, 3-(3,5-dicyano-1,4-dihydro-1,2,6-trimethyl-4-pyridinyl)-benzoic acid, methyl ester]"
22,< 100 nM,"CC1=C(C#N)C(c2ccc3[nH]nc(N)c3c2)C(C#N)=C(C)N1C [compound 288, 4-(3-amino-1H-indazol-5-yl)-1,4-dihydro-1,2,6-trimethyl-3,5-pyridinedicarbonitrile]"
23,< 100 nM,"CC1=C(C#N)C(c2ccc3[nH]ncc3c2)C(C#N)=C(C)N1C [compound 289, 1,4-dihydro-4-(1H-indazol-5-yl)-1,2,6-trimethyl-3,5-pyridinedicarbonitrile]"
24,< 100 nM,"CCOC(=O)CN1C(C)=C(C#N)C(c2ccc3[nH]ncc3c2)C(C#N)=C1C [compound 290, 3,5-dicyano-4-(1H-indazol-5-yl)-2,6-dimethyl-1(4H)-pyridineacetic acid ethyl ester]"
25,< 100 nM,"CC1=C(C#N)C(c2ccc3[nH]ncc3c2)C(C#N)=C(C)N1CCO [compound 292, 1,4-dihydro-1-(2-hydroxyethyl)-4-(1H-indazol-5-yl)-2,6-dimethyl-3,5-pyridinedicarbonitrile]"
26,< 100 nM,"CC1=C(C#N)C(c2ccc3[nH]nc(N)c3c2)C(C#N)=C(C)N1Cc1ccccc1 [compound 293, 4-(3-amino-1H-indazol-5-yl)-1,4-dihydro-2,6-dimethyl-1-(phenylmethyl)-3,5-pyridinedicarbonitrile]"
27,< 100 nM,"CCN1C(C)=C(C#N)C(c2ccc3[nH]nc(N)c3c2)C(C#N)=C1C [compound 294, 1-ethyl-4-(3-amino-1H-indazol-5-yl)-1,4-dihydro-2,6-dimethyl-3,5-pyridinedicarbonitrile]"
28,< 100 nM,"CC1=C(C#N)C(c2ccc3[nH]nc(Cl)c3c2)C(C#N)=C(C)N1CCO [compound 297, 4-(3-chloro-1H-indazol-5-yl)-1,4-dihydro-1-(2-hydroxyethyl)-2,6-dimethyl-3,5-pyridinedicarbonitrile]"
